Experimental data reported in patent US11236087B2, “Highly active pyrazolo-piperidine substituted indole-2-carboxamides active against the hepatitis B virus (HBV)” (AiCuris GmbH & Co. KG, priority 2017, dated 2022).

Experiments:
HBV = test: Determination of HBV DNA from the supernatants of HepAD38 cells (anti-HBV activity); format: cell-based, hepatitis B virus; conditions: Hepatitis B virus, 144 h; HBV DNA in HepAD38 supernatant, day 6, qPCR; read-out: Cell Activity (EC50)
Experimental: Determination of HBV DNA from the Supernatants of HepAD38 Cells
The anti-HBV activity was analysed in the stable transfected cell line HepAD38, which has been described to secrete high levels of HBV virion particles (Ladner et al., 1997). In brief, HepAD38 cells were cultured at 37° C. at 5% CO2 and 95% humidity in 200 μl maintenance medium, which was Dulbecco's modified Eagle's medium/Nutrient Mixture F-12 (Gibco, Karlsruhe), 10% fetal bovine serum (PAN Biotech Aidenbach) supplemented with 50 μg/ml penicillin/streptomycin (Gibco, Karlsruhe), 2 mM L-glutamine (PAN Biotech, Aidenbach), 400 μg/ml G418 (AppliChem, Darmstadt) and 0.3 μg/ml tetracycline. Cells were subcultured once a week in a 1:5 ratio, but were usually not passaged more than ten times. For the assay 60,000 cells were seeded in maintenance medium without any tetracycline into each well of a 96-well plate and treated with serial half-log dilutions of test compound. To minimize edge effects the outer 36 wells of the plate were not used but were filled with assay medium. On each assay plate six wells for the virus control (untreated HepAD38 cells) and six wells for the cell control (HepAD38 cells treated with 0.3 μg/ml tetracycline) were allocated, respectively. In addition, one plate set with reference inhibitors like BAY 41-4109, entecavir, and lamivudine instead of screening compounds were prepared in each experiment. In general, experiments were performed thrice in triplicates. At day 6 HBV DNA from 100 μl filtrated cell culture supernatant (AcroPrep Advance 96 Filter Plate, […] Supor membran, PALL GmbH, Dreieich) was automatically purified on the MagNa Pure LC instrument using the MagNA Pure 96 DNA and Viral NA Small Volume Kit (Roche Diagnostics, Mannheim) according to the instructions of the manufacturer. EC50 values were calculated from relative copy numbers of HBV DNA In brief, 5 μl of the 100 μl eluate containing HBV DNA were subjected to PCR LC480 Probes Master Kit (Roche) together with 1 μM antisense primer […], 0.5 μM sense primer […], 0.3 μM hybprobes […]-FL and LC640-[…]-PH (TIBMoBiol, Berlin) to a final volume of 12.5 μl. The PCR was performed on the Light Cycler 480 real time system (Roche Diagnostics, Mannheim) using the following protocol: Pre-incubation for 1 min at 95° C., amplification: 40 cycles×(10 sec at 95° C., 50 sec at 60° C., 1 sec at 70° C.), cooling for 10 sec at 40° C. Viral load was quantitated against known standards using HBV plasmid DNA of pCH-9/3091 (Nassal et al., 1990, Cell 63: 1357-1363) and the LightCycler 480 SW 1.5 software (Roche Diagnostics, Mannheim) and EC50 values were calculated using non-linear regression with GraphPad Prism 6 (GraphPad Software Inc., La Jolla, USA).

[1] = Cell viability assay (AlamarBlue) in HepAD38 cells; conditions: human

| SMILES | EC50 (HBV) [µM] | CC50 at 6 days [1] [µM] |
| --- | --- | --- |
| O=C(c1cc2ccccc2[nH]1)N1CCc2[nH]nc(C(=O)N3CC(F)(F)C(F)(F)C3)c2C1 [Example 223, 2-[3-(3,3,4,4-tetrafluoropyrrolidine-1-carbonyl)-1H,4H,5H,6H,7H-pyrazolo[4,3-c]pyridine-5-carbonyl]-1H-indole] | 1 to 25 | > 10 |
| O=C(c1cc2ccccc2[nH]1)N1CCc2[nH]nc(C(=O)N3CC[C@H](F)C3)c2C1 [Example 224, 2-{3-[(3S)-3-fluoropyrrolidine-1-carbonyl]-1H,4H,5H,6H,7H-pyrazolo[4,3-c]pyridine-5-carbonyl}-1H-indole] | < 1 | > 10 |
| O=C(c1cc2ccccc2[nH]1)N1CCc2[nH]nc(C(=O)N3CC[C@@H](F)C3)c2C1 [Example 225, 2-{3-[(3R)-3-fluoropyrrolidine-1-carbonyl]-1H,4H,5H,6H,7H-pyrazolo[4,3-c]pyridine-5-carbonyl}-1H-indole] | < 1 | > 10 |
| COC(=O)CC1(N(C)C(=O)c2n[nH]c3c2CN(C(=O)c2cc4ccccc4[nH]2)CC3)CC1 [Example 226, methyl 2-{1-[N-methyl 5-(1H-indole-2-carbonyl)-1H,4H,5H,6H,7H-pyrazolo[4,3-c]pyridine-3-amido]cyclopropyl}acetate] | 1 to 25 | > 10 |
| CCc1cc(F)cc2[nH]c(C(=O)N3CCc4[nH]nc(C(=O)N5CCC(F)(F)C5)c4C3)cc12 [Example 227, 2-[3-(3,3-difluoropyrrolidine-1-carbonyl)-1H,4H,5H,6H,7H-pyrazolo[4,3-c]pyridine-5-carbonyl]-4-ethyl-6-fluoro-1H-indole] | < 1 | > 10 |
| CCc1cccc2[nH]c(C(=O)N3CCc4[nH]nc(C(=O)N5CCC(F)(F)C5)c4C3)cc12 [Example 228, 2-[3-(3,3-difluoropyrrolidine-1-carbonyl)-1H,4H,5H,6H,7H-pyrazolo[4,3-c]pyridine-5-carbonyl]-4-ethyl-1H-indole] | < 1 | > 10 |
| O=C(c1cc2c(Cl)cc(F)cc2[nH]1)N1CCc2[nH]nc(C(=O)N3CCC(F)(F)C3)c2C1 [Example 229, 4-chloro-2-[3-(3,3-difluoropyrrolidine-1-carbonyl)-1H,4H,5H,6H,7H-pyrazolo[4,3-c]pyridine-5-carbonyl]-6-fluoro-1H-indole] | < 1 | > 10 |
| O=C(c1cc2c(Cl)cccc2[nH]1)N1CCc2[nH]nc(C(=O)N3CCC(F)(F)C3)c2C1 [Example 230, 4-chloro-2-[3-(3,3-difluoropyrrolidine-1-carbonyl)-1H,4H,5H,6H,7H-pyrazolo[4,3-c]pyridine-5-carbonyl]-1H-indole] | < 1 | > 10 |
| O=C(c1cc2c(F)c(F)ccc2[nH]1)N1CCc2[nH]nc(C(=O)N3CCC(F)(F)C3)c2C1 [Example 231, 2-[3-(3,3-difluoropyrrolidine-1-carbonyl)-1H,4H,5H,6H,7H-pyrazolo[4,3-c]pyridine-5-carbonyl]-4,5-difluoro-1H-indole] | < 1 | > 10 |
| CC(=O)N1CCN(C(=O)c2[nH]nc3c2CN(C(=O)c2cc4ccccc4[nH]2)CC3)C2(CC2)C1 [Example 236, 1-{4-[5-(1H-indole-2-carbonyl)-2H,4H,5H,6H,7H-pyrazolo[4,3-c]pyridine-3-carbonyl]-4,7-diazaspiro[2.5]octan-7-yl}ethan-1-one] | 1 to 25 | > 10 |
| CN(C(=O)c1n[nH]c2c1CN(C(=O)c1cc3ccccc3[nH]1)CC2)C1(CCC(N)=O)CC1 [Example 237, N-[1-(2-carbamoylethyl)cyclopropyl]-5-(1H-indole-2-carbonyl)-N-methyl-1H,4H,5H,6H,7H-pyrazolo[4,3-c]pyridine-3-carboxamide] | < 100 | > 10 |
| CN(C(=O)c1n[nH]c2c1CN(C(=O)c1cc3c(F)cc(F)cc3[nH]1)CC2)C1(CO)CC1 [Example 238, 5-(4,6-difluoro-1H-indole-2-carbonyl)-N-[1-(hydroxymethyl)cyclopropyl]-N-methyl-1H,4H,5H,6H,7H-pyrazolo[4,3-c]pyridine-3-carboxamide] | < 1 | > 10 |
| CN(C(=O)c1n[nH]c2c1CN(C(=O)c1cc3c(Cl)c(F)ccc3[nH]1)CC2)C1(CO)CC1 [Example 239, 5-(4-chloro-5-fluoro-1H-indole-2-carbonyl)-N-[1-(hydroxymethyl)cyclopropyl]-N-methyl-1H,4H,5H,6H,7H-pyrazolo[4,3-c]pyridine-3-carboxamide] | < 1 | > 10 |
| CN(C(=O)c1n[nH]c2c1CN(C(=O)c1cc3c(F)c(F)ccc3[nH]1)CC2)C1(CO)CC1 [Example 240, 5-(4,5-difluoro-1H-indole-2-carbonyl)-N-[1-(hydroxymethyl)cyclopropyl]-N-methyl-1H,4H,5H,6H,7H-pyrazolo[4,3-c]pyridine-3-carboxamide] | < 1 | > 10 |
| CN(C(=O)c1n[nH]c2c1CN(C(=O)c1cc3c(Cl)cc(F)cc3[nH]1)CC2)C1(CO)CC1 [Example 241, 5-(4-chloro-6-fluoro-1H-indole-2-carbonyl)-N-[1-(hydroxymethyl)cyclopropyl]-N-methyl-1H,4H,5H,6H,7H-pyrazolo[4,3-c]pyridine-3-carboxamide] | < 1 | > 10 |
| CN(C(=O)c1n[nH]c2c1CN(C(=O)c1cc3cc(F)c(Cl)cc3[nH]1)CC2)C1(CO)CC1 [Example 242, 5-(6-chloro-5-fluoro-1H-indole-2-carbonyl)-N-[1-(hydroxymethyl)cyclopropyl]-N-methyl-1H,4H,5H,6H,7H-pyrazolo[4,3-c]pyridine-3-carboxamide] | < 1 | > 10 |
| Cc1cc(F)cc2[nH]c(C(=O)N3CCc4[nH]nc(C(=O)N(C)C5(CO)CC5)c4C3)cc12 [Example 243, 5-(6-fluoro-4-methyl-1H-indole-2-carbonyl)-N-[1-(hydroxymethyl)cyclopropyl]-N-methyl-1H,4H,5H,6H,7H-pyrazolo[4,3-c]pyridine-3-carboxamide] | < 1 | > 10 |
| O=C(c1cc2ccccc2[nH]1)N1CCc2n[nH]c(C(=O)N3CCN(Cc4ccccc4)C4(CC4)C3)c2C1 [Example 257, 2-(3-{4-benzyl-4,7-diazaspiro[2.5]octane-7-carbonyl}-2H,4H,5H,6H,7H-pyrazolo[4,3-c]pyridine-5-carbonyl)-1H-indole] | 1 to 25 | > 10 |
| CN(C(=O)c1[nH]nc2c1CN(C(=O)c1cc3ccccc3[nH]1)CC2)C1(C(=O)OC(C)(C)C)CC1 [Example 258, tert-butyl 1-[N-methyl 5-(1H-indole-2-carbonyl)-2H,4H,5H,6H,7H-pyrazolo[4,3-c]pyridine-3-amido]cyclopropane-1-carboxylate] | 1 to 25 | > 10 |
| N[C@@H]1CCN(C(=O)c2[nH]nc3c2CN(C(=O)c2cc4ccccc4[nH]2)CC3)C1 [Example 259, (3R)-1-[5-(1H-indole-2-carbonyl)-2H,4H,5H,6H,7H-pyrazolo[4,3-c]pyridine-3-carbonyl]pyrrolidin-3-amine] | 1 to 25 | > 10 |
| CN(CCC(=O)O)C(=O)CCN(C)C(=O)c1[nH]nc2c1CN(C(=O)c1cc3ccccc3[nH]1)CC2 [Example 275, 3-(3-{1-[5-(1H-indole-2-carbonyl)-2H,4H,5H,6H,7H-pyrazolo[4,3-c]pyridin-3-yl]-N-methylformamido}-N-methylpropanamido)propanoic acid] | 1 to 25 | > 10 |
| CO/N=C(/c1n[nH]c2c1CN(C(=O)c1cc3ccccc3[nH]1)CC2)C1CC1 [Example 288, (E)-{cyclopropyl[5-(1H-indole-2-carbonyl)-1H,4H,5H,6H,7H-pyrazolo[4,3-c]pyridin-3-yl]methylidene}(methoxy)amine] | 1 to 25 | > 10 |
| CO/N=C(\c1n[nH]c2c1CN(C(=O)c1cc3ccccc3[nH]1)CC2)C1CC1 [Example 289, (Z)-{cyclopropyl[5-(1H-indole-2-carbonyl)-1H,4H,5H,6H,7H-pyrazolo[4,3-c]pyridin-3-yl]methylidene}(methoxy)amine] | 1 to 25 | > 10 |
